PubChem BioAssay AID1963960 (Molecular Pharmacology Branch, DTP, NCI, 2024)

System: MDA-MB-468 spheroids with HUVEC/MSC, viability
Assay: Anticancer human tumor MDA-MB-468 cell line growth inhibition [PI3K];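 note: spheroids exposed to agents for seven days before readout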;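 for viability, T/C: 100% = DMSO vehicle control viability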
Settings: for IC50: curve of first compound; for viability, T/C: stronger effect = lower value
Outline: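 Targeted small molecules plus PI3K inhibitors, half-log dose series from Cmax (default top 10 microM), were applied to heterotypic spheroids of cancer cells with HUVEC and MSCs. Viability indicated growth inhibition.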

[1] = second compound 0.0316 µM, first compound 0.0316 µM
[2] = second compound 0.0316 µM, first compound 0.1 µM
[3] = second compound 0.0316 µM, first compound 0.316 µM
[4] = second compound 0.0316 µM, first compound 1 µM
[5] = second compound 0.0316 µM, first compound 3.16 µM
[6] = second compound 0.0316 µM, first compound 10 µM
[7] = second compound 0.1 µM, first compound 0.0316 µM
[8] = second compound 0.1 µM, first compound 0.1 µM
[9] = second compound 0.1 µM, first compound 0.316 µM
[10] = second compound 0.1 µM, first compound 1 µM
[11] = second compound 0.1 µM, first compound 3.16 µM
[12] = second compound 0.1 µM, first compound 10 µM
[13] = second compound 0.316 µM, first compound 0.0316 µM
[14] = second compound 0.316 µM, first compound 0.1 µM
[15] = second compound 0.316 µM, first compound 0.316 µM
[16] = second compound 0.316 µM, first compound 1 µM
[17] = second compound 0.316 µM, first compound 3.16 µM
[18] = second compound 0.316 µM, first compound 10 µM
[19] = second compound 1 µM, first compound 0.0316 µM
[20] = second compound 1 µM, first compound 0.1 µM
[21] = second compound 1 µM, first compound 0.316 µM
[22] = second compound 1 µM, first compound 1 µM
[23] = second compound 1 µM, first compound 3.16 µM
[24] = second compound 1 µM, first compound 10 µM
[25] = second compound 3.16 µM, first compound 0.0316 µM
[26] = second compound 3.16 µM, first compound 0.1 µM
[27] = second compound 3.16 µM, first compound 0.316 µM
[28] = second compound 3.16 µM, first compound 1 µM
[29] = second compound 3.16 µM, first compound 3.16 µM
[30] = second compound 3.16 µM, first compound 10 µM
[31] = second compound 10 µM, first compound 0.0316 µM
[32] = second compound 10 µM, first compound 0.1 µM
[33] = second compound 10 µM, first compound 0.316 µM
[34] = second compound 10 µM, first compound 1 µM
[35] = second compound 10 µM, first compound 3.16 µM
[36] = second compound 10 µM, first compound 10 µM

C#Cc1c(F)ccc2cc(O)cc(-c3ncc4c(N5CC6CCC(C5)N6)nc(OCC56CCCN5CC(F)C6)nc4c3F)c12 (centres undefined) + Cc1nc(NC(=O)N2CCCC2C(N)=O)sc1-c1ccnc(C(C)(C)C(F)(F)F)c1
IC50 (second compound 0.0316 µM): > 10000 nM | IC50 (second compound 0.1 µM): 7360 nM | IC50 (second compound 0.316 µM): 5640 nM | IC50 (second compound 1 µM): 3090 nM | IC50 (second compound 3.16 µM): 960 nM | IC50 (second compound 10 µM): < 31.6 nM | viability, T/C [1]: 83.2% | viability, T/C [2]: 84.4% | viability, T/C [3]: 80.2% | viability, T/C [4]: 106% | viability, T/C [5]: 100% | viability, T/C [6]: 52.3% | viability, T/C [7]: 91.1% | viability, T/C [8]: 89.1% | viability, T/C [9]: 88.9% | viability, T/C [10]: 101% | viability, T/C [11]: 79.9% | viability, T/C [12]: 39.2% | viability, T/C [13]: 92.4% | viability, T/C [14]: 85.6% | viability, T/C [15]: 69.9% | viability, T/C [16]: 80.9% | viability, T/C [17]: 75.6% | viability, T/C [18]: 24.7% | viability, T/C [19]: 92.4% | viability, T/C [20]: 81.8% | viability, T/C [21]: 71.8% | viability, T/C [22]: 83.3% | viability, T/C [23]: 49.4% | viability, T/C [24]: 15.8% | viability, T/C [25]: 80.5% | viability, T/C [26]: 69.3% | viability, T/C [27]: 53.4% | viability, T/C [28]: 53.4% | viability, T/C [29]: 35.4% | viability, T/C [30]: 3.3% | viability, T/C [31]: 42.2% | viability, T/C [32]: 26.6% | viability, T/C [33]: 22.3% | viability, T/C [34]: 18.9% | viability, T/C [35]: 7.98% | viability, T/C [36]: 0.65%

CC1(C)CCC(Nc2ncc(C(F)(F)F)c(-c3c[nH]c4c(P(C)(C)=O)c(C#N)ccc34)n2)CN1 (centres undefined) + Cc1nc(NC(=O)N2CCCC2C(N)=O)sc1-c1ccnc(C(C)(C)C(F)(F)F)c1
IC50 (second compound 0.0316 µM): < 31.6 nM | IC50 (second compound 0.1 µM): < 31.6 nM | IC50 (second compound 0.316 µM): < 31.6 nM | IC50 (second compound 1 µM): < 31.6 nM | IC50 (second compound 3.16 µM): < 31.6 nM | IC50 (second compound 10 µM): < 31.6 nM | viability, T/C [1]: 12.9% | viability, T/C [2]: 13.4% | viability, T/C [3]: 10.2% | viability, T/C [4]: 12.3% | viability, T/C [5]: 10.3% | viability, T/C [6]: 1.66% | viability, T/C [7]: 13.4% | viability, T/C [8]: 13.6% | viability, T/C [9]: 11% | viability, T/C [10]: 11.7% | viability, T/C [11]: 9.67% | viability, T/C [12]: 1.49% | viability, T/C [13]: 16.6% | viability, T/C [14]: 10.6% | viability, T/C [15]: 9.57% | viability, T/C [16]: 11.6% | viability, T/C [17]: 9.4% | viability, T/C [18]: 1.34% | viability, T/C [19]: 13.8% | viability, T/C [20]: 10.9% | viability, T/C [21]: 9.4% | viability, T/C [22]: 10.7% | viability, T/C [23]: 7.46% | viability, T/C [24]: 1.27% | viability, T/C [25]: 15.4% | viability, T/C [26]: 10.6% | viability, T/C [27]: 9.84% | viability, T/C [28]: 9.67% | viability, T/C [29]: 5.93% | viability, T/C [30]: 1.32% | viability, T/C [31]: 11% | viability, T/C [32]: 7.92% | viability, T/C [33]: 8.97% | viability, T/C [34]: 6.88% | viability, T/C [35]: 4.2% | viability, T/C [36]: 0.98%
